In US20180200293A1, “STABILIZED GOLD NANOPARTICLES” (priority 2014, published 2018):

How the values were obtained:
[1] = Electron capture by AuNPs in water, muon spin resonance (μSR); conditions: degassed 0.1 M aqueous surfactant reference solution, absence of AuNPs
From the text: To deconstruct the complex electron-transfer reactions in water, we used a highly sensitive spectroscopic technique involving the positive muon (μ+) using the muon spin resonance (μSR) technique (18). The μSR technique is a type of spin spectroscopy that makes use of short-lived subatomic particles, muons (μ^+), which are sensitive magnetic and electronic probes of matter.
A degassed 0.1 M aqueous solution of the dissolved surfactant (bac-14) was used as a reference. […] These electrons therefore combine with positive muons or MuH2O^+ ions to form paramagnetic muonium, an ultra-light hydrogen atom (0.11H) that adds to the aromatic ring of the surfactant (FIG. 15).
The diamagnetic fraction shown in the transverse field spectra (FIG. 17) is enhanced when muons enter the AuNP solution, as compared with the reference solution containing a similar surfactant concentration and evaluated under the same experimental conditions (same sample geometry and magnetic field).
In aqueous solutions, the competition of Reactions 1-5 in the radiation track determines the muon fractions (19-21). […]
where [AuNP] is the AuNP concentration calculated to be 4.89×10^-7 M (see supplementary information) and the muon thermalization rate (10) is at least 1 ns−1.
The lower limit of the electron capture rate constant (ke) for the AuNPs, using Eq. 1, was determined to be 2×10^15 M^−1 s^−1. […]

[2] = scavenger concentrations as high as 2 M; cited from earlier work

Row | Compound | trapping of solvated or pre-solvated electrons [1] | electron capture rate (reported for known scavengers) [2] [M⁻¹ s⁻¹]
1 | CCCCCCCCCCCCCC[N+](C)(C)Cc1ccccc1.[Cl-] [bac-14, Benzyldimethyltetradecylammonium chloride] | unable to effectively trap the solvated or pre-solvated electrons | –
2 | CC(C)O [isopropanol] | – | 2.3e+11
3 | C[S+](C)[O-] [DMSO] | – | 8.1e+11
4 | O=[N+]([O-])[O-].[K+] [KNOB] | – | 1.2e+13
